The text below walks through data of patent US4189484A, “Antihypertensive quinazoline derivatives” (priority 1977, dated 1980).

For series [1], the system named is ICR strain male mice. Description: in vivo. Particulars: for No. of deceased animal: 8 animals per group, 1 week. The class given is in vivo. Here is the method:
(§1) ICR strain male mice, weighing 30-35 g., were deprived of food for 6 hours (water ad libitum) and then used in the experiment. Each group consisted of 8 animals. The test compound was suspended in a 1% tragacanth gum solution so as to be a volume of 40 ml./kg. and orally given. After administration, numbers of deceased animals, changes in body weight and other general states were observed or determined over 1 week.
(§2) Survived mice were autopsyed.

Series [2] can be described thus: in vivo. It counts as in vivo. Particulars: mouse, in vivo, po; mice. How it is done:
as §1, §2

For series [3], the system named is spontaneously hypertensive rats (SHR). Description: Antihypertensive effect, oral administration to spontaneously hypertensive rats (mean blood pressure and heart rate). The class given is in vivo, rat. Particulars: for Changes in average blood pressures after administration: Table 3; for Change in blood pressure after 3 hrs. from administration: Table 1; for Changes in blood pressure (BP) after oral administration / Changes in heart rate (HR) after oral administration: Table 2, male SHR, n=5, p.o. Here is the method: Antihypertensive effect was determined by oral administration of the test compound to spontaneously hypertensive rats (hereinafter referred to as SHR).
These SHR were anesthetized with ether and chronically embedded with a cannula for determination of blood pressure so that one end of the said cannula may be placed in abdominal aorta and the other end thereof may be projected out of dorsal neck. When rats regained their body weight before operation in more than 1 week from operation, the test compound was given. Determination was made by measuring a mean blood pressure and a heart rate under unanesthetized and unrestrained conditions with the cannula connected to an electronic recording system. The test compound was suspended in a 1% tragacanth gum solution to make up a concentration so as to be a volume of 5 ml./kg. and then orally given.

The test system of series [4] is Adrenergic α-receptor. In words: Adrenergic α-receptor blocking effect (inhibition of hypertensive action of i.v. adrenalin hydrochloride). The class given is in vivo, Wistar strain male rats. Particulars: relative to prazosin. Here is the method:
Wistar strain male rats, weighing 250-300 g., were used in this experiment. The rat was anesthetized with pentobarbital sodium and fitted in the right femoral artery with a cannula for determination of blood pressure and in the left femoral vein with another cannula for intravenous injection, the former cannula being connected to an electronic recording system to measure a blood pressure.
Adrenergic α-receptor blocking effect was determined upon whether a hypertensive action with intravenous injection of adrenalin hydrochloride at 0.3 or 1 μg./kg. may be reserved by pretreatment with the test compound.

Take `COc1cc2nc(N3CCN(C(=O)C=Cc4ccco4)CC3)nc(N)c2cc1OC` [compound 28, 2-{4-[3-(Furan-2-yl)-acryloyl]-piperazin-1-yl}-4-amino-6,7-dimethoxyquinazoline]: the “Body weight gain after 7 days” value is given as “+2.6 g” in series [1] (p.o., 1,250 mg./kg.); “+3.0 g” in series [1] (p.o., 2,500 mg./kg.); “+0.2 g” in series [1] (p.o., 5,000 mg./kg.). Also, the “No. of deceased animal” value in series [1] (p.o., 1,250 mg./kg.) came out at 0; in series [1] (p.o., 2,500 mg./kg.), 0; in series [1] (p.o., 5,000 mg./kg.), 0. Moreover, the LD50 at 168 h in series [2] is > 5000 mg/kg. Further, the “Changes in average blood pressures after administration” value in series [3] (SHR, p.o., 1 mg./kg., 1 hr.) is -51 mmHg; in series [3] (SHR, p.o., 1 mg./kg., 3 hrs.), -31 mmHg; in series [3] (SHR, p.o., 1 mg./kg., 6 hrs.) it was -38 mmHg; in series [3] (SHR, p.o., 1 mg./kg., 24 hrs.), -11 mmHg; in series [3] (SHR, p.o., 3 mg./kg., 1 hr.) it was -74 mmHg; in series [3] (SHR, p.o., 3 mg./kg., 3 hrs.) it was -38 mmHg. Also, the “Changes in average blood pressures after administration” value in series [3] (SHR, p.o., 3 mg./kg., 6 hrs.) was -43 mmHg; in series [3] (SHR, p.o., 3 mg./kg., 24 hrs.), -15 mmHg.

With `COc1cc2nc(N3CCN(C(=O)C=Cc4ccc5c(c4)OCO5)CC3)nc(N)c2cc1OC` [Compound No. 16, 2-[4-(3,4-Methylenedioxycinnamoyl)-piperazin-1-yl]-4-amino-6,7-dimethoxyquinazoline], in series [4], the “α-receptor blocking action as compared with the action of prazosin” value is 1/100. For the same molecule, in series [3] (SHR, p.o., 10 mg./kg., 3 hrs.), the “Change in blood pressure after 3 hrs. from administration” value (“Change in blood pressure” for short) is reported as -13 mmHg.

`COc1cc2nc(N3CCN(C(=O)C=Cc4ccccc4)CC3)nc(N)c2cc1OC` [Compound No. 1, 2-(4-Cinnamoylpiperazin-1-yl)-4-amino-6,7-dimethoxyquinazoline]: in series [4], the “α-receptor blocking action as compared with the action of prazosin” value is recorded as 1/10. Besides, the “Body weight gain after 7 days” value in series [1] (p.o., 1,250 mg./kg.) is given as “+3.9 g”; in series [1] (p.o., 2,500 mg./kg.), “+4.0 g”; in series [1] (p.o., 5,000 mg./kg.), “+4.7 g”. In addition, the “No. of deceased animal” value in series [1] (p.o., 1,250 mg./kg.) was found to be 0; in series [1] (p.o., 2,500 mg./kg.), 0; in series [1] (p.o., 5,000 mg./kg.) it was 0. Also, the LD50 at 168 h in series [2] was > 5000 mg/kg. Besides, in series [3] (SHR, p.o.), the “time of maximum antihypertensive effect from oral administration” value fell in the range of 3 to 6 h. Also, in series [3] (SHR, p.o., 0.3-3 mg./kg., in words), the “antihypertensive effect, dose dependence” value is given as “correlated with a dose”. The “Change in blood pressure” value in series [3] (SHR, p.o., 1 mg./kg., 3 hrs.) is given as -18 mmHg; in series [3] (SHR, p.o., 10 mg./kg., 3 hrs.), -53 mmHg. Also, the “Changes in blood pressure (BP) after oral administration” value in series [3] (0.3 mg./kg., 1 hr.) is -14±5.1 mm.Hg; in series [3] (0.3 mg./kg., 3 hrs.), -16±3.3 mm.Hg; in series [3] (0.3 mg./kg., 6 hrs.), -19±1.9 mm.Hg; in series [3] (0.3 mg./kg., 24 hrs.), 4±4.3 mm.Hg; in series [3] (1 mg./kg., 1 hr.), -20±1.6 mm.Hg; in series [3] (1 mg./kg., 3 hrs.), -26±3.3 mm.Hg. In addition, the “Changes in blood pressure (BP) after oral administration” value in series [3] (1 mg./kg., 6 hrs.) is recorded as -27±4.1 mm.Hg; in series [3] (1 mg./kg., 24 hrs.) it was -2±1.2 mm.Hg; in series [3] (3 mg./kg., 1 hr.), -40±3.5 mm.Hg; in series [3] (3 mg./kg., 3 hrs.), -35±4.4 mm.Hg; in series [3] (3 mg./kg., 6 hrs.), -35±3.5 mm.Hg; in series [3] (3 mg./kg., 24 hrs.), -4±4.3 mm.Hg. Moreover, the “Changes in heart rate (HR) after oral administration” value in series [3] (0.3 mg./kg., 1 hr.) is listed as -5.3±3.9 no/min; in series [3] (0.3 mg./kg., 3 hrs.), -3.8±7.4 no/min; in series [3] (0.3 mg./kg., 6 hrs.), 0.3±5.9 no/min; in series [3] (0.3 mg./kg., 24 hrs.) it was 3.9±7.1 no/min; in series [3] (1 mg./kg., 1 hr.), -4.8±4.1 no/min; in series [3] (1 mg./kg., 3 hrs.), -1.5±4.7 no/min. The “Changes in heart rate (HR) after oral administration” value in series [3] (1 mg./kg., 6 hrs.) is recorded as -7.9±2.7 no/min; in series [3] (1 mg./kg., 24 hrs.) it was -0.5±3.2 no/min; in series [3] (3 mg./kg., 1 hr.), 6.9±5.4 no/min; in series [3] (3 mg./kg., 3 hrs.) it was -1.7±5.5 no/min; in series [3] (3 mg./kg., 6 hrs.), 10.0±8.3 no/min; in series [3] (3 mg./kg., 24 hrs.) it was 19.5±7.2 no/min.

`COc1ccc(C=CC(=O)N2CCN(c3nc(N)c4cc(OC)c(OC)cc4n3)CC2)cc1` [Compound No. 8, 2-[4-(4-Methoxycinnamoyl)-piperazin-1-yl]-4-amino-6,7-dimethoxyquinazoline]: the “α-receptor blocking action as compared with the action of prazosin” value in series [4] is recorded as 1/100. Besides, the “Change in blood pressure” value in series [3] (SHR, p.o., 10 mg./kg., 3 hrs.) was -25 mmHg.

Consider `CCOc1ccc(C=CC(=O)N2CCN(c3nc(N)c4cc(OC)c(OC)cc4n3)CC2)cc1` [Compound No. 10, 2-[4-(4-Ethoxycinnamoyl)-piperazine-1-yl]-4-amino-6,7-dimethoxyquinazoline], for which, in series [4], the “α-receptor blocking action as compared with the action of prazosin” value is given as 1/100. Moreover, the “Change in blood pressure” value in series [3] (SHR, p.o., 1 mg./kg., 3 hrs.) was -19 mmHg; in series [3] (SHR, p.o., 10 mg./kg., 3 hrs.), -53 mmHg.

What is called LD50 is the dose at which mortality reaches 50%. A high value points to a less toxic substance.
